This is an account of results in paper PMC7126984 (International Journal of Antimicrobial Agents, 2008).

In one series the test system is IFNα expression. The experiment in a line: ELISA for detection of IFNα expression in TE-671 cells. It is filed as cell-based, human. As to conditions: 48 h incubation.
The subject of series [1] is gamma-activated sequence (GAS) promoter. Nature of the series: Dual-luciferase cis-reporter assay pGAS-Luc in HL-CZ cells. The following applies: 1 μg/mL, 4 h, normalised by Renilla luciferase, vs untreated cells. It is filed as cell-based, human.
Series [2] has as its system nitric oxide (NO) production. The experiment in a line: NO production by DAF-2 DA fluorescence in HL-CZ cells. It is filed as cell-based, human. As to conditions: compared with the control and shikonin.
Series [3] can be described thus: MTT cytotoxicity test in HL-CZ cells. The following applies: human, HL-CZ promonocyte cells.
Series [4] can be described thus: MTT cytotoxicity test in TE-671 cells. As to conditions: human, TE-671 medulloblastoma cells. On the technique in general: Formazan colour is commonly taken as a measure of viable cells.
Series [5] concerns Japanese encephalitis virus (JEV) strain T1P1. Nature of the series: Plaque reduction assay, JEV in HL-CZ cells. As to conditions: for TI (ratio of CC50 to IC50): JEV, HL-CZ cells; for IC50: Japanese encephalitis virus, 48 h.
Series [6] shares this test system. Nature of the series: Plaque reduction assay, JEV in TE-671 cells. The following applies: for TI (ratio of CC50 to IC50): JEV, TE-671 cells; for IC50: Japanese encephalitis virus; for inhibition of JEV replication in cell culture assay: dose-dependent plaque reduction assay.
The test system of series [7] is interferon-stimulated response element (ISRE) promoter. Nature of the series: Dual-luciferase cis-reporter assay pISRE-Luc in HL-CZ cells. The series is classed as cell-based, human. The following applies: 1 μg/mL, 4 h, normalised by Renilla luciferase, vs untreated cells. (In general: In a reporter assay the amount or activity of a reporter protein is the signal.)
Series [8] concerns human protein kinase R (PKR) mRNA. Nature of the series: Real-time RT-PCR of PKR mRNA in HL-CZ cells. It is filed as cell-based. As to conditions: 1 μg/mL, normalised to GAPDH, vs untreated cells. On the technique in general: Quantitative PCR measures a nucleic acid by following its amplification.
Series [9] concerns 2′,5′-oligoadenylate synthetase (OAS) mRNA. The experiment in a line: Real-time RT-PCR of OAS mRNA in HL-CZ cells. The series is classed as cell-based, human. As to conditions: 1 μg/mL, normalised to GAPDH, vs untreated cells.
The test system of the next series is rhinovirus. As to conditions: cited from earlier work.
For series [10], the system named is enterovirus 71 (EV71). The experiment in a line: Plaque reduction assay, EV71 in HL-CZ cells.
Series [11] has as its system enterovirus 71 (EV71). The experiment in a line: Plaque reduction assay, EV71 in TE-671 cells. As to conditions: for IC50: Enterovirus A.
Series [12] has as its system TE-671 medulloblastoma cells. The experiment in a line: MTT cytotoxicity test in TE-671 cells. The following applies: TE-671 cells, 48 h treatment, MTT assay.
Where [13] appears, read: 1 μg/mL, TE-671 and HL-CZ cells, 12, 24 and 48 h.

Values after ≈ are worked out from the molar mass of the structure shown.

Usually CC50 stands for the concentration that lowers cell viability or growth by half. As usually defined, the IC50 is the point on the concentration scale where inhibition reaches its midpoint. Turning to `COC(=O)C1=CCCN(C)C1` [Arecoline, arecoline], the “level of IFNα expression, dose dependence” value (shortened to “level of IFNα expression”) in the series with IFNα expression is “dose-dependent increase”. The “increase of promoter activity of pGAS-Luc” value in series [1] turned out to be 1.8 fold. The “NO production (DAF signal)” value in series [2] is “greater DAF signal”. Moreover, the CC50 at 48 h in series [3] and in [4] was above 3000 µg/mL each time. Further, the “TI (ratio of CC50 to IC50)” value in series [5] is reported as above 285.7; in [6] it was above 92.3. Also, the IC50 in [5] was 10.5 ± 0.3 µg/mL (≈ 67.7 µM); in series [6] (TE-671, 48 h), 32.5 ± 0.4 µg/mL (≈ 209 µM). Moreover, the “inhibition of JEV replication in cell culture assay” value (“inhibition … in cell culture assay” below) in series [6] is on record as “dose-dependent inhibition”.

In the case of `CC(C)=CC[C@@H](O)C1=CC(=O)c2c(O)ccc(O)c2C1=O` [Shikonin, shikonin], the “level of IFNα expression” value in the series on IFNα expression is given as “dose-dependent increase”. Besides, the “increase of promoter activity of pISRE-Luc” value in [7] was “ca. 1.2 fold”. Also, the “increase of PKR mRNA” value in series [8] amounted to 1087 fold. The “increase of OAS mRNA” value in series [9] is recorded as 5 fold. Further, the figures for the CC50 at 48 h in [3] and in series [4] were above 3000 µg/mL and 1750 µg/mL (≈ 6080 µM), respectively. For the same compound, the figures for the “TI (ratio of CC50 to IC50)” value in series [5] and in [6] were above 2500 and 835.2, respectively. For the same compound, the IC50 in [5] was 1.2 ± 0.2 µg/mL (≈ 4.16 µM); in series [6] (TE-671, 48 h), 2.1 ± 0.5 µg/mL (≈ 7.28 µM). Further, the “inhibition … in cell culture assay” value in series [6] is on record as “dose-dependent inhibition”.

`COc1ccc([C@@H]2CC(=O)c3c(O)cc(O)cc3O2)cc1O` [Hesperetin, hesperetin] showed a CC50 at 48 h in [4] of 574 µg/mL (≈ 1900 µM). Moreover, the “TI (ratio of CC50 to IC50)” value in series [6] was determined as 159. For the same compound, half-maximal inhibition in [6] (TE-671, 48 h) (IC50) was put at 3.6 ± 0.5 µg/mL (≈ 11.9 µM).

Regarding `O=C1c2cccc(O)c2C(=O)c2c(O)cc(CO)cc21` [Aloe-emodin, 1,8-dihydroxy-3-hydroxymethyl-anthraquinone], the “increase in IFNα expression” value in the series on IFNα expression amounted to 2.5 fold. Also, in the series on IFNα expression, the “level of IFNα expression” value is reported as “dose-dependent increase”. For the same compound, the “increase of promoter activity of pISRE-Luc” value in [7] was “ca. 2.14 fold”. Besides, in [1], the “increase of promoter activity of pGAS-Luc” value is given as around 2.03 fold. Moreover, the “increase of PKR mRNA” value in [8] came out at 1294.4 fold. Further, in [9], the “increase of OAS mRNA” value is listed as 8.6 fold. Besides, the “NO production (DAF signal)” value in series [2] is given as “greater DAF signal”. Further, the “antiviral effect on the replication of rhinovirus” value in the series with rhinovirus is listed as “no antiviral effect”. Besides, the CC50 at 48 h in [3] came out at 2880 µg/mL (≈ 10700 µM); in [4], 2630 µg/mL (≈ 9740 µM). The “TI (ratio of CC50 to IC50)” value is given as 5762 in series [5]; 1743 in series [6]; 5540 with enterovirus 71 (EV71) [10] (EV71, HL-CZ cells); 18 800 in the series with enterovirus 71 (EV71) [11] (EV71, TE-671 cells). Further, the IC50 in series [5] was 0.5 ± 0.02 µg/mL (≈ 1.85 µM); in series [6] (TE-671, 48 h) it was 1.51 ± 0.05 µg/mL (≈ 5.59 µM); in [6] (TE-671, read-out: IC50 for JEV), 0.5 to 1.51 µg/mL (≈ 1.85 to 5.59 µM); in the series with enterovirus 71 (EV71) [10] (Enterovirus A, EV71, 48 h), 0.52 ± 0.03 µg/mL (≈ 1.92 µM); in the series with enterovirus 71 (EV71) [11] (EV71, TE-671, 48 h), 0.14 ± 0.04 µg/mL (≈ 0.518 µM); in the series on enterovirus 71 (EV71) [11] (EV71, TE-671, read-out: IC50 for EV71), 0.14 to 0.52 µg/mL (≈ 0.518 to 1.92 µM). The “time-dependent inhibition of JEV replication” value in [6] (setting [13]) is on record as “significantly inhibited”. The “inhibition … in cell culture assay” value in [6] is listed as “dose-dependent inhibition”. Further, the “therapeutic index (TI) for anti-JEV activity” value in series [6] (over TE-671 and HL-CZ cells) was above 1500. In the series on enterovirus 71 (EV71) [11] (setting [13]), the “time-dependent inhibition of EV71 replication” value is “significantly inhibited”. Moreover, the “therapeutic index (TI) for anti-EV71 activity” value in the series on enterovirus 71 (EV71) [11] (over TE-671 and HL-CZ cells) is listed as above 5000.

On to `O.Oc1cc(O)c2c(c1)O[C@H](c1ccc(O)c(O)c1)[C@@H](O)C2` [Catechin, catechin], for which the CC50 in [12] was above 3000 µg/mL.
